Here are results for four compounds from patent US20090148445A1, “METHODS OF SENSITIZING CANCER TO THERAPY-INDUCED CYTOTOXICITY” (The Regents of the University of California, priority 2005, published 2009).

Where two headings read alike, the source gives them in different places.

The subject of one data set is multiple myeloma cells. To be noted: multiple myeloma cells resistant to conventional and bortezomib therapies; cited from earlier work.
In data set [1] the test system is YY1. Nature of the data set: YY1 expression by western blot in Ramos cells. The format is cell-based. Conditions: various concentrations, 24 hour exposure.
From the text: (§1) The expression of β-actin was used as a control.
as §1

Data set [2] deals with DR5. In words: DR5 surface expression by flow cytometry, Ramos. The format is cell-based.
The test system of data set [3] is B-NHL Daudi cell line (wild type). In words: Sensitization to CDDP-induced apoptosis, propidium iodide flow cytometry, Daudi. Conditions: for apoptosis by combination treatment with CDDP: inhibitor 1-15 nM 1 h.
Method: Daudi cells were treated for Ramos as in FIG. 1 above.
Daudi cells were treated with various concentrations of bortezomib or Salinosporamide A for 1 h and then treated with CDDP (10 μg/ml) for an additional 20 h and the cells were treated for apoptosis as described in FIG. 1 above.
Daudi cells were treated with various concentrations of DHMEQ (μM) and/or Salinosporamide A (nM) for 1 h and then treated with CDDP (10 μg/ml) for an additional 20 h. The cells were then harvested and tested for apoptosis as described in FIG. 1 above.
The CDDP resistant B-NHL Ramos cell line was treated with various concentrations of Salinosporamide A for one hour and then treated with predetermined nontoxic concentration of CDDP (15 μg/ml) for an additional 20 hours. The cells were then harvested and examined for apoptosis using the propidium iodide (PI) technique by flow cytometry examining DNA fragmentation. […] Similar studies were performed with the Daudi B-NHL cell line.
We examined the effect of Salinosporamide A and bortezomib in their ability to sensitize Daudi wild type cells to CDDP-induced apoptosis. The tumor cells were treated for one hour with various concentrations of Salinosporamide A or bortezomib (range 1-15 nM) and then treated with CDDP (10 μg/ml) for an additional 20 h. The cells were then examined for apoptosis as described above.
We examined the differential effects of Salinosporamide A and DHMEQ in their ability to sensitize Daudi to CDDP-induced apoptosis. Tumor cells were treated with different concentrations of DHMEQ (range 1-65 μM) and Salinosporamide A (range 1-50 nM) for 1 h and then treated with CDDP (10 μg/ml) for an additional 20 h and the cells were then examined for apoptosis as described above.
The subject of data set [4] is TRAIL-resistant Ramos cells. In words: Sensitization to TRAIL-induced apoptosis. The format is cell-based.
The next data set relates to pleiotrophin (PTN). Nature of the data set: Pleiotrophin (PTN) expression. In kind it is cell-based. To be noted: 5 nM. The text has this:
PTN has been reported to be elevated in tumor cells and in the circulation of cancer patients and is of prognostic significance. In addition, inhibition of PTN contributes to the sensitizing effect of Salinosporamide A. PTN is also a target for therapeutic intervention.

A further data set concerns HL60MX2. Conditions: drug resistant HL60MX2; equal doses as for HL60; cited from earlier work.
Data set [5] relates to DR5. In words: DR5 expression by Western, Ramos. In kind it is cell-based.
For the next data set, the system named is B-NHL Ramos cell line. Nature of the data set: Sensitization to CDDP-induced apoptosis, propidium iodide flow cytometry, Ramos. The method, then: The percent apoptotic cells was recorded. […] The treatment were performed in duplicates.
The subject of the next data set is PTEN. In words: PTEN expression by western. The format is cell-based. To be noted: FIG. 15. The text has this:
Further, most resistant tumor cells express low levels of PTEN, and PTEN is a target for therapeutic intervention, as well as a biomarker

Data set [6] deals with DR5. Nature of the data set: DR5 expression, rituximab resistant Ramos RR1. In kind it is cell-based. Conditions: rituximab resistant Ramos cells RR1.
In the next data set the test system is Bcl-xL. In words: Bcl-xL expression by western. In kind it is cell-based. The procedure: Bcl-xL expression was assessed by western.
In data set [7] the test system is rituximab resistant Daudi RR1 cell line. Nature of the data set: Sensitization to CDDP-induced apoptosis, propidium iodide flow cytometry, Daudi RR1. The format is cell-based. Conditions: for potentiation of apoptosis in combination with CDDP: inhibitor 1 h. The method, then: The rituximab resistant clone Daudi-RR1 was treated as in FIG. 1 above.
FIG. 4A compares the effect of Salinosporamide A and bortezomib on CDDP-induced apoptosis in Daudi RR1 cells.
FIG. 4B compares the effect of Salinosporamide A and DHMEQ on CDDP-induced apoptosis in Daudi RR1 cells.
Rituximab (chimeric anti-CD20 monoclonal antibody) has been used in the treatment of Non-Hodgkin's Lymphoma alone or in combination with chemotherapy. The clinical response has been very encouraging; however, some patients are initially unresponsive or develop resistance following treatment. In order to investigate the mechanism of rituximab resistance we have developed in our laboratory rituximab resistant clones from B-NHL cell lines. We have selected certain clones for further analysis of the underlying mechanism of resistance. […] We investigated whether Salinosporamide A can sensitize Daudi RR1 to CDDP-induced apoptosis.
Similar studies were performed as above in a) with Daudi RR1 cells.

The subject of data set [8] is rituximab sensitive and rituximab resistant B-NHL tumor cells. In words: Sensitization of B-NHL tumor cells to drug-induced apoptosis (conclusions). The format is cell-based. The method, then:
1) Salinosporamide A at very low concentrations (0.1-10 nM) sensitizes both rituximab sensitive and rituximab resistant B-NHL tumor cells to drug-induced apoptosis.

The subject of data set [9] is Salinosporamide A resistant Daudi cells. In words: Rituximab-mediated sensitization to Salinosporamide A-induced apoptosis, Daudi. The format is cell-based. To be noted: rituximab 20 ug/ml 1 h, then Salinosporamide A 10 nM 20 h.
For data set [10] the following is noted: administered orally or intravenously; cited from earlier work.
The test system of data set [11] is Raf-kinase inhibitor protein (RKIP). Nature of the data set: RKIP expression by western blot in Ramos cells. The format is cell-based. The procedure: Ramos cells were treated with 10 nM Salinosporamide A for various periods of time, and total cell lysates were examined for the expression of RKIP by western blot analysis. The expression of β-actin was used as a control.
RKIP is a member of the phosphotidylethanolamine-binding protein (PEBP) family. Ramos cells were treated with 10 nM Salinosporamide A for various periods of time, and total cell lysates were examined for the expression of RKIP by western blot analysis. The expression of β-actin was used as a control.

Data set [12] concerns 60 human tumor cell lines. To be noted: NCI screening panels of 60 human tumor cell lines; cited from earlier work.
In another data set the test system is caspase 9. In words: Caspase 9 activation by western (pro-caspase 9 level) in Ramos cells. The format is cell-based.
For another data set, the system named is HL60. To be noted: drug sensitive HL60; equal doses as for HL60MX2; cited from earlier work.
Data set [13] relates to YY1. Nature of the data set: YY1 transcription by RT-PCR. The format is cell-based.
From the text: as §1

[14] abbreviates: Daudi wild type, then CDDP 10 μg/ml 20 h.
Where [15] appears, read: inhibitor 1 h, then CDDP 15 μg/ml 20 h.
[16] abbreviates: DHMEQ (μM) or Salinosporamide A (nM) 1 h, then CDDP 10 μg/ml 20 h.

Method for Ramos B-NHL cells: Ramos cells were treated with rituximab (20 μg/ml) for 1 h and then treated with various concentrations of Salinosporamide A for an additional 20 h. The cells were then examined for apoptosis as described above in FIG. 1.
Ramos cells were cultured untreated or treated with rituximab (20 μg/ml) for 18 h. Thereafter, the cells were treated with adriamycin (ADR) (5 μg/ml) or with different concentrations of Salinosporamide A (0.1, 1.0, 10 nM) overnight. The cell lines were examined for apoptosis by flow cytometry using the propidium iodide method for measuring DNA fragmentation.
Ramos cells were treated with rituximab (20 ug/ml) (12 h to 18 h) and the cells were treated with various concentrations of Salinosporamide A (1-10 nM) for an additional 20 h and the cells were examined for apoptosis using the PI method detecting DNA fragmentation by flow cytometry.
Method for caspase 9: The activation of capsase 9 was assessed by western as the level of pro-caspase 9 was reduced following treatment.

For the compound `C[C@@]12OC(=O)[C@]1([C@@H](O)[C@@H]1C=CCCC1)NC(=O)[C@@H]2CCCl` [Salinosporamide A], in the data set with multiple myeloma cells, the induction of apoptosis result was “induces apoptosis”. The “levels of YY1 protein” value in the data set on YY1 [1] is listed as “decrease in the levels of YY1 protein”. For the same compound, the DR5 surface expression result with DR5 [2] is reported as “upregulated DR5 surface expression”. The “apoptosis by combination treatment with CDDP” value in data set [3] (setting [14]) is “significant apoptosis by the combination treatment at all concentrations of inhibitors used”. Further, the “cytotoxicity of combination treatment with CDDP” value in data set [3] (Daudi, treated as Ramos, function of concentration) was “significant cytotoxicity was observed”; with B-NHL Ramos cell line (setting [15]), “significant potentiation of cytotoxicity”. For the same compound, the “sensitization to TRAIL-induced apoptosis” value in [4] was “sensitizes TRAIL-resistant Ramos cells to TRAIL-induced apoptosis”. For the same compound, the “pleiotrophin (PTN) expression” value with pleiotrophin (PTN) is given as “inhibits the growth factor pleiotrophin (PTN) expression significantly”. Further, the cytotoxicity result with HL60MX2 and in the data set with HL60 was “cytotoxic” in each case. The DR5 expression entry in the data set on DR5 [5] and in the data set with DR5 [6] was “upregulates DR5 expression” each time. In addition, the “cytotoxicity of Salinosporamide A treatment alone” value with B-NHL Ramos cell line (1 and 10 nM, no CDDP) is listed as “modest cytotoxicity”. Besides, in the data set on B-NHL Ramos cell line (setting [15]), the “concentration at which potentiation of cytotoxicity was mostly observed (significant synergistic cytotoxicity)” value is 0.1 nM. Further, the PTEN expression entry with PTEN (Salinosporamide A alone) is on record as “induces the expression”. Moreover, the “PTEN expression in combination with rituximab” value with PTEN (combination with rituximab) was “more was expressed”. The “concentration inhibiting Bcl-xL expression” value with Bcl-xL is below 2.5 nM. Also, the “sensitization to CDDP-induced apoptosis” value in data set [7] (setting [16]) was “sensitize cells to CDDP-induced apoptosis”; in data set [7] (treated as Ramos, function of concentration) it was “significantly sensitized”. The “potentiation of apoptosis in combination with CDDP” value in data set [7] (then CDDP 10 μg/ml 20 h) is “significant potentiation of apoptosis”. Also, the “concentrations that sensitize to drug-induced apoptosis” value in data set [8] (rituximab sensitive and rituximab resistant B-NHL tumor cells) is 0.1 to 10 nM. Moreover, in [9], the “apoptosis by combination of rituximab and Salinosporamide A” value was “significant apoptosis and synergy was achieved”. In addition, in the data set on Ramos B-NHL cells (Ramos, no rituximab, 0.1, 1.0, 10 nM overnight), the “cytotoxic effects of sole treatment” value is reported as “no detectable cytotoxic effects”. For the same compound, the “apoptosis by combination treatment with rituximab” value in the data set on Ramos B-NHL cells (Ramos, rituximab 20 ug/ml 12-18 h, then Salinosporamide A 1-10 nM 20 h) is given as “significant apoptosis”. The “rituximab sensitization to Salinosporamide A-induced apoptosis compared with ADR” value in the data set with Ramos B-NHL cells (Ramos, rituximab 20 μg/ml 18 h, ADR 5 μg/ml) is “greater than that achieved with ADR”. Also, the “apoptosis in rituximab pre-treated tumor cells” value in the data set with Ramos B-NHL cells (Ramos, rituximab 20 μg/ml 18 h, Salinosporamide A 1 nM) is recorded as “significant apoptosis”; in the data set with Ramos B-NHL cells (Ramos, rituximab 20 μg/ml 18 h, Salinosporamide A 10 nM), “less effective due to cell loss”. The “concentration at which synergistic activity with rituximab was detected” value in the data set with Ramos B-NHL cells (Ramos, rituximab 20 ug/ml pre-treatment) is “>= 1 nM”. Moreover, in the data set with Ramos B-NHL cells (rituximab-mediated chemosensitization, FIG. 6), the “rituximab sensitization to Salinosporamide A-induced apoptosis compared with CDDP” value was “higher level than CDDP”. Further, the “anti-tumor effects in vivo” value in data set [10] was “exerted anti-tumor effects”. The “levels of RKIP protein” value in [11] (Ramos, 10 nM, 15 minute exposure) is on record as “increase in the levels of RKIP protein”. Moreover, the RKIP expression result in data set [11] (Salinosporamide A alone, FIG. 15) is listed as “induces the expression”. Moreover, in [11] (combination with rituximab, FIG. 15), the “RKIP expression in combination with rituximab” value is on record as “more was expressed”. The mean growth inhibition entry in [12] is listed as “less than 10 nM”. For the same compound, the “caspase 9 activation” value in the data set on caspase 9 (Salinosporamide A alone) is given as “activates caspase 9”. Moreover, the “caspase 9 activation in combination with CDDP” value in the data set with caspase 9 (combination with CDDP) is “more caspase 9 was activated”. Further, the YY1 transcription entry in the data set with YY1 [13] is listed as “inhibits YY1 transcription”.

In the case of rituximab [reference compound], the “sensitization of tumor cells to Salinosporamide A-induced apoptosis” value in the data set on Ramos B-NHL cells (rituximab 20 ug/ml pre-treatment) was “can sensitize drug-resistant tumor cells to Salinosporamide A induced apoptosis”.

As for `CC(C)C[C@H](NC(=O)[C@H](Cc1ccccc1)NC(=O)c1cnccn1)B(O)O` [bortezomib, reference compound], the “apoptosis by combination treatment with CDDP” value in [3] (setting [14]) was “significant apoptosis by the combination treatment at all concentrations of inhibitors used”. Further, in data set [7] (then CDDP 10 μg/ml 20 h), the “potentiation of apoptosis in combination with CDDP” value is listed as “significant potentiation of apoptosis”.

On to `O=C(NC1=CC(=O)[C@H]2O[C@H]2[C@H]1O)c1ccccc1O` [DHMEQ, reference compound], for which the “higher concentration used with DHMEQ as compared to Salinosporamide A for similar sensitization” value in data set [3] (Daudi wild type, CDDP 10 μg/ml) was 4,000 fold; in data set [7] (CDDP 10 μg/ml) it was 4,000 fold. For the same compound, the “sensitization to CDDP-induced apoptosis” value in data set [3] (Daudi, DHMEQ 1-65 μM 1 h, then CDDP 10 μg/ml 20 h) is recorded as “can sensitize Daudi cells to CDDP-induced apoptosis”; in data set [7] (setting [16]) it was “sensitize cells to CDDP-induced apoptosis”. Also, the “increase in concentration required for sensitization as compared to Salinosporamide A” value in data set [8] (B-NHL tumor cells, drug-induced apoptosis) is 4,000 fold.
